Assay results as given in PubChem BioAssay AID1963851 (Molecular Pharmacology Branch, DTP, NCI, 2024).

Tested on: 188146-221-R-J1-PDC complex spheroid viability
Experiment: Anticancer human tumor 188146-221-R-J1-PDC patient-derived colon adenocarcinoma cell line growth inhibition [POLQ]
Conditions: for IC50: curve of first compound; for viability, T/C: stronger effect = lower value
Protocol: Multicellular complex tumor spheroid response to Polymerase (POL) inhibitors (novobiocin, ART-558, RP6685) in combination with a variety of drugs and investigational agents in selected tumor cell lines
The POL inhibitors (novobiocin, ART-558, and RP6685) were evaluated both individually and in combination with standard of care and investigational anticancer small molecules within a complex spheroid model of solid tumors. . Complex spheroids include a stromal component modeled by human endothelial cells (HUVEC) and fibroblasts modeled by human mesenchymal stem cells (MSCs). The concentration ranges selected for each drug and investigational agent were based upon clinically achievable concentrations if the clinical Cmax of the agent was known.
Compounds. The drugs and investigational agents: novobiocin (NSC847541), ART-558 (NSC835418), RP-6685 (NSC848927), peposertib (NSC802822), ceralasertib (NSC780249), elimusertib (NSC800525), camonsertib (NSC841442), AZD-1390 (NSC803789), olaparib (NSC753686), talazoparib (NSC767125), rucaparib (NSC756644), sotorasib (NSC818433), MRTX-1133 (NSC836407), SN-38 (NSC673596), topotecan (NSC609699), epotoside (NSC141540), doxorubicin (NSC123127), gemcitabine (NSC613327), 5-fluorouracil (NSC19893), paclitaxel (NSC125973), vemurafenib (NSC761431), MSA-2 (NSC828583), SN-011 (NSC837082), adavosertib (NSC754352), prexasertib (NSC758257), carboplatin (NSC241240) and oxaliplatin (NSC266046), were obtained from the National Cancer Institute (NCI) Developmental Therapeutics Program Chemical Repository (21). The FDA-approved anticancer drug set is available from the Developmental Therapeutics Program at https://dtp.cancer.gov/organization/dscb/obtaining/. […] The stock solutions were prepared in dimethyl sulfoxide (DMSO, Sigma-Aldrich, St. Louis, MO, cat. D2650), except for the platinum compounds which were prepared in saline (Quality Biological, Gaithersburg, MD, cat. 114-055-101), at 800-fold the tested concentration and stored at -70 degrees C prior to their use. All drugs and investigational agents were tested over a range starting from a high concentration at or near the clinical Cmax and decreasing in half-log increments. If the clinical Cmax for an agent had not been determined, the highest concentration tested was 10 microM, except for SN-38, which was tested at a high concentration of 1 microM.
Cell Culture. All cells were maintained in an incubator at 37 degrees C and 5% CO2 with 95% humidity. The PDC lines were cultured according to standard operating procedures established by the NCI PDMR (https://pdmr.cancer.gov). Table 3 of the manuscript, lists the cell lines along with the number of the three cell types plated to form the mct-spheroids and media for tumor cell growth. After thawing, all PDC lines, except 997537-175-T-J1-PDC and 415267-285-R-J2-PDC, were cultured in Matrigel-coated flasks prepared with a working solution of 1X Ham's F-12 nutrient mix, without supplementation (Thermo Fisher Scientific, cat. 11765054), 100 U/mL penicillin-streptomycin (Thermo Fisher Scientific, cat. 15140122), and 2.5% Matrigel (Corning Inc., Corning, NY, cat. 354248) for the first three passages. The two PDC lines 997537-175-T-J1-PDC and 415267-285-R-J2-PDC were cultured on uncoated flasks. The 857933-349-R-J2-PDC line was cultured in 6C/Colon 1B media containing advanced DMEM/F-12 (Thermo Fisher Scientific, cat. 12634028), 10 mM HEPES (Thermo Fisher Scientific, cat. 15630080), 1X GlutaMAX supplement (Thermo Fisher Scientific, cat. 35050061), 0.1 mg/mL primocin (InvivoGen, San Diego, CA, cat. ant-pm-2), 10% defined fetal bovine serum, heat inactivated (HyClone Laboratories Inc., Logan, UT, cat. SH30070.03HI), 50% L-WRN conditioned media (ATCC, cat. CRL-3276), 1.25 mM N-Acetyl-L-cysteine (Sigma-Aldrich, cat. A9165), 10 mM nicotinamide (Sigma-Aldrich, cat. N0636), 1X B-27 supplement (Thermo Fisher Scientific, cat. 17504044), 1X N-2 supplement (Thermo Fisher Scientific, cat. […]
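Also: spheroids exposed to compounds for seven days.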
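For viability, T/C in this document: 100% = DMSO vehicle control viability.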

Structure (SMILES): Nc1ccn(C2OC(CO)C(O)C2(F)F)c(=O)n1 (configuration not stated) + Nc1ccc(C#CCN(C(=O)Cc2ncc(C(F)(F)F)cc2C(F)(F)F)c2ccc(F)cc2)nn1
- IC50 (second compound 0.0316 µM): < 31.6 nM
- IC50 (second compound 0.1 µM): < 31.6 nM
- IC50 (second compound 0.316 µM): < 31.6 nM
- IC50 (second compound 1 µM): < 31.6 nM
- IC50 (second compound 3.16 µM): < 31.6 nM
- IC50 (second compound 10 µM): < 31.6 nM
- viability, T/C (second compound 0.0316 µM, first compound 0.0316 µM): 27.5%
- viability, T/C (second compound 0.0316 µM, first compound 0.1 µM): 18%
- viability, T/C (second compound 0.0316 µM, first compound 0.316 µM): 17.3%
- viability, T/C (second compound 0.0316 µM, first compound 1 µM): 17.3%
- viability, T/C (second compound 0.0316 µM, first compound 3.16 µM): 17.6%
- viability, T/C (second compound 0.0316 µM, first compound 10 µM): 12.2%
- viability, T/C (second compound 0.1 µM, first compound 0.0316 µM): 33.5%
- viability, T/C (second compound 0.1 µM, first compound 0.1 µM): 18%
- viability, T/C (second compound 0.1 µM, first compound 0.316 µM): 18.8%
- viability, T/C (second compound 0.1 µM, first compound 1 µM): 15.2%
- viability, T/C (second compound 0.1 µM, first compound 3.16 µM): 15.3%
- viability, T/C (second compound 0.1 µM, first compound 10 µM): 16.1%
- viability, T/C (second compound 0.316 µM, first compound 0.0316 µM): 32.9%
- viability, T/C (second compound 0.316 µM, first compound 0.1 µM): 17.4%
- viability, T/C (second compound 0.316 µM, first compound 0.316 µM): 15.9%
- viability, T/C (second compound 0.316 µM, first compound 1 µM): 16.3%
- viability, T/C (second compound 0.316 µM, first compound 3.16 µM): 16.4%
- viability, T/C (second compound 0.316 µM, first compound 10 µM): 15.9%
- viability, T/C (second compound 1 µM, first compound 0.0316 µM): 30.1%
- viability, T/C (second compound 1 µM, first compound 0.1 µM): 17.6%
- viability, T/C (second compound 1 µM, first compound 0.316 µM): 18%
- viability, T/C (second compound 1 µM, first compound 1 µM): 16.6%
- viability, T/C (second compound 1 µM, first compound 3.16 µM): 19%
- viability, T/C (second compound 1 µM, first compound 10 µM): 14.2%
- viability, T/C (second compound 3.16 µM, first compound 0.0316 µM): 27.4%
- viability, T/C (second compound 3.16 µM, first compound 0.1 µM): 19.8%
- viability, T/C (second compound 3.16 µM, first compound 0.316 µM): 15.3%
- viability, T/C (second compound 3.16 µM, first compound 1 µM): 17.1%
- viability, T/C (second compound 3.16 µM, first compound 3.16 µM): 16.6%
- viability, T/C (second compound 3.16 µM, first compound 10 µM): 15.4%
- viability, T/C (second compound 10 µM, first compound 0.0316 µM): 40.4%
- viability, T/C (second compound 10 µM, first compound 0.1 µM): 23.2%
- viability, T/C (second compound 10 µM, first compound 0.316 µM): 20.3%
- viability, T/C (second compound 10 µM, first compound 1 µM): 19.1%
- viability, T/C (second compound 10 µM, first compound 3.16 µM): 19.4%
- viability, T/C (second compound 10 µM, first compound 10 µM): 14.9%
